Assay type in all cases: physicochemical
Data set [1] in a line: Viscosity, Brookfield viscometer DV-II+. To be noted: 25° C., spindle No. 2, 12 rpm. How it is done:
Viscosity of ester compounds was measured using Brookfield viscometer DV-II+ (spindle No. 2, 12 rpm, 25° C.). As a comparison, viscosity of oil agents commonly used in cosmetic products was also measured.

The nature of data set [2]: Smoothness (MIU, MMD), KES-SE Friction Tester on artificial leather. To be noted: for MIU (mean frictional coefficient) / MMD (fluctuation of mean frictional coefficient): 25° C., 0.1 ml on artificial leather, average of three. How it is done:
Smoothness of ester compounds was measured using KES-SE Friction Tester (Kato Tech Co., Ltd.) with a detection-unit jig (an accessory of the tester, made of silicone rubber with irregularities resembling a human finger) and artificial leather (artificial leather Supplare produced by Idemitsu Technofine Co., Ltd.). On the artificial leather, 0.1 ml of an ester compound was droped. The jig was contacted to the site on the surface of the artificial leather where the oil agent was dropped. Temperature of the leather, oil agent and jig was adjusted to 25° C. in a constant temperature bath. Then, the jig was moved back and forth once at the same site with a speed of 1 mm/s (the moving distance of the jig was approximately 80 mm in one back-and-forth movement), and a mean frictional coefficient (MIU) and a fluctuation of mean frictional coefficient (MMD) for one back-and-forth movement were measured. The measurement was performed three times and the average values of MIU and MMD were calculated, which were used as indices of smoothness. For comparison, MIU and MMD of the various ester compounds used in the viscosity measurement were also measured.

Data set [3] is described as follows: Glossiness (refractive index), Abbe refractometer NTR-2T. To be noted: 20° C. How it is done:
Measurement is carried out using Abbe refractometer NTR-2T (Atago Co., Ltd.) at 20° C., and resulting values represent refractive index.

Data set [4] can be described thus: Ultraviolet absorber solubility in oily bases. Note: key: C: Soluble; N: Insoluble; (N): Since it is insoluble when ultraviolet absorber is 3%, it is judged to be probably insoluble at 5% as well. How it is done: Their state after 1 week was evaluated visually.
Data set [5] is described as follows: Compatibility with various types of oil agent. More on the design: key to Compatibility with Hydrogenated polyisobutene / Compatibility with Isononyl isononanoate / Compatibility with Neopentyl glycol diethylhexanoate / Compatibility with Triethylhexanoin / Compatibility with Octyldodecanol / Compatibility with Polyglyceryl-2 triisostearate / Compatibility with Diisostearyl malate / Compatibility with Olive oil / Compatibility with Isostearic acid / Compatibility with Cyclomethicone / Compatibility with Dimethicone (10 mm^2/s) / Compatibility with Ethanol / Compatibility with Glycerin / Compatibility with Squalane / Compatibility with Mineral oil: C: Compatible; N: Not compatible. The conditions noted are these: for Compatibility with Cyclomethicone / Compatibility with Dimethicone (10 mm^2/s) / Compatibility with Ethanol / Compatibility with Glycerin / Compatibility with Hydrogenated polyisobutene / Compatibility with Isostearic acid / Compatibility with Mineral oil / Compatibility with Octyldodecanol / Compatibility with Olive oil / Compatibility with Polyglyceryl-2 triisostearate / Compatibility with Squalane / Compatibility with Triethylhexanoin: 25° C., visual after 1 week. How it is done: Each of TCDNP and TCDDNP obtained in Synthesis Examples 1 and 8 and each of oily bases are combined with a weight ratio of 9:1 or 1:1, and dissolved in a water bath at 80-90° C. for approximately 30 min with stirring, then cooled to 50° C. with stirring, and stored in a thermostatic chamber at 25° C. Their compatibility was evaluated by visually checking the state after 1 week.

Setting [6] is: Tinosorb S 5%, 25° C., visual after 1 week.
[7] abbreviates: Tinosorb S 5%, judged from insolubility at 3%.
[8] abbreviates: Tinosorb S 7%, 25° C., visual after 1 week.
The mark [9] stands for this setting: Tinosorb S 2%, 25° C., visual after 1 week.

For `CCCCCCCCCCC(CO)CCCCCCCC` (stereo not shown) [Octyldodecanol, reference compound], in data set [1], the Viscosity came out at 49 mPa · s. For the same compound, in data set [2], the “MIU (mean frictional coefficient)” value turned out to be 0.39 and the “MMD (fluctuation of mean frictional coefficient)” value (from here on “MMD”) is 0.007.

The compound “Pentaerythrityl tetraisostearate [reference compound]” gave a Refractive index in data set [3] of 1.468.

`CCCCCCCCCCC(CO)CCCCCCCCCC` [Decyldodecanol, reference compound] registered a Viscosity in data set [1] of 69 mPa · s. In data set [2], the “MIU (mean frictional coefficient)” value was 0.40 and the “MMD” value is 0.006.

Take `CC(C)CCCCCCCOC(=O)C(C)(C)C` [Isodecyl neopentanoate, reference compound]: the Refractive index in data set [3] is given as 1.430. The compound also had a Viscosity in data set [1] of 4 mPa · s. In data set [2], the “MIU (mean frictional coefficient)” value worked out at 0.15 and the “MMD” value was 0.005. Further, the “Solubility of ultraviolet absorber Tinosorb S in the component” value (“Solubility” below) in data set [4] (setting [6]) is “N”.

As for Ethylhexyl hydroxystearate, the “Solubility” value in data set [4] (setting [7]) was “(N)”.

The compound `CC(C)CCCC(C)CCCC(C)CCCCC(C)CCCC(C)CCCC(C)C` (stereo not shown) [Squalane, reference compound] had a Viscosity in data set [1] of 32 mPa · s. Moreover, in data set [2], the “MIU (mean frictional coefficient)” value worked out at 0.40 and the “MMD” value is given as 0.007.

`CCCCC(CC)C(=O)OCC(C)(C)COC(=O)C(CC)CCCC` (stereo not shown) [Neopentyl glycol diethylhexanoate]: the “Solubility” value in data set [4] (setting [6]) is “N”.

`CC(C)CCCCCC(=O)OCC(C)(C)COC(=O)CCCCCC(C)C` [Neopentyl glycol diisononanoate]: the “Solubility” value in data set [4] (setting [7]) was “(N)”.

For `CC(C)CCCCCCCCCCOC(=O)CCCCCC(C)C` [Isotridecyl isononanoate, reference compound], the Refractive index in data set [3] stood at 1.445. Further, the “Solubility” value in data set [4] (setting [7]) was “(N)”.

As for `CCOC(=O)CCCCCCCCCCCCCCC(C)C` [Ethyl isostearate], the “Solubility” value in data set [4] (setting [6]) was “N”.

The compound `CCCCC(=O)OCC1CC2CC1C1CCCC21` (stereo not shown) [TCDP, tricyclo[5.2.1.0^2,6]deca-8-yl-methyl-n-pentanoate] yielded a Refractive index in data set [3] of 1.484. This compound showed a Viscosity in data set [1] of 15 mPa · s. In addition, in data set [2], the “MIU (mean frictional coefficient)” value is on record as 0.29 and the “MMD” value is 0.005.

In turn, `CC(C)(C)C(=O)OCC1CC2CC1C1CCC(COC(=O)C(C)(C)C)C21` (stereo not shown) [TCDDNP, 3,8-bis-(neopentanoyloxymethyl)-tricyclo[5.2.1.0^2,6]decane] yielded a Refractive index in data set [3] of 1.472. The Viscosity in data set [1] was 462 mPa · s. For the same compound, in data set [2], the “MIU (mean frictional coefficient)” value came to 0.28 and the “MMD” value is reported as 0.006. Further, in data set [5], the “Compatibility with the oil agents (overall)” value was “excellent compatibility with the oil agents other than glycerin”. Also, in data set [5] (10%), the “Compatibility with Cyclomethicone” value was “C”, the “Compatibility with Dimethicone (10 mm^2/s)” value is given as “C”, the “Compatibility with Ethanol” value is recorded as “C” and the “Compatibility with Glycerin” value is reported as “N”. Besides, in data set [5] (10%), the “Compatibility with Hydrogenated polyisobutene” value is on record as “C”, the “Compatibility with Isostearic acid” value is reported as “C”, the “Compatibility with Mineral oil” value was “C” and the “Compatibility with Octyldodecanol” value is listed as “C”. For the same compound, in data set [5] (10%), the “Compatibility with Olive oil” value is on record as “C”, the “Compatibility with Polyglyceryl-2 triisostearate” value is given as “C”, the “Compatibility with Squalane” value was “C” and the “Compatibility with Triethylhexanoin” value is on record as “C”. Also, in data set [5] (50%), the “Compatibility with Cyclomethicone” value is on record as “C”, the “Compatibility with Dimethicone (10 mm^2/s)” value is “C”, the “Compatibility with Ethanol” value is reported as “C” and the “Compatibility with Glycerin” value is reported as “N”. In addition, in data set [5] (50%), the “Compatibility with Hydrogenated polyisobutene” value is listed as “C”, the “Compatibility with Isostearic acid” value is given as “C”, the “Compatibility with Mineral oil” value is given as “C” and the “Compatibility with Octyldodecanol” value is recorded as “C”. Moreover, in data set [5] (50%), the “Compatibility with Olive oil” value is “C”, the “Compatibility with Polyglyceryl-2 triisostearate” value was “C”, the “Compatibility with Squalane” value was “C” and the “Compatibility with Triethylhexanoin” value is “C”.

`CC(C)CCCCCCCCCCCCCCCOC(=O)C(C)(C)C` [Isostearyl neopentanoate, reference compound] showed a Refractive index in data set [3] of 1.446. In addition, the Viscosity in data set [1] is listed as 14 mPa · s. In addition, in data set [2], the “MIU (mean frictional coefficient)” value was found to be 0.27 and the “MMD” value is 0.006. In data set [4] (setting [6]), the “Solubility” value is “N”.

As to “Polyglyceryl-2 triisostearate [reference compound]”, in data set [1], the Viscosity is 339 mPa · s. Besides, in data set [2], the “MIU (mean frictional coefficient)” value turned out to be 0.31 and the “MMD” value amounted to 0.008.

As to `CC(C)CCCCCCOC(=O)CCCCCC(C)C` [Isononyl isononanoate], the “Solubility” value in data set [4] (setting [6]) was “N”.

For `CC(C)COC(=O)CCCCC(=O)OCC(C)C` [Diisobutyl adipate], the “Solubility” value in data set [4] (setting [8]) is given as “N”.

Regarding Isopropyl dimerate, the “Solubility” value in data set [4] (setting [9]) is reported as “N”.

In the case of `CC(CC(=O)OCC1CC2CC1C1CCCC21)CC(C)(C)C` (stereo not shown) [TCDIN, tricyclo[5.2.1.0^2,6]deca-8-yl-methyl isononanoate], the Refractive index in data set [3] worked out at 1.479. In data set [1], this compound showed a Viscosity of 44 mPa · s. In data set [2], the “MIU (mean frictional coefficient)” value worked out at 0.31 and the “MMD” value was 0.006. The “Smoothness in comparison with other oil agents” value in data set [2] (comparison of MIU at similar viscosity) is on record as “superior smoothness than squalane”. Also, the “Solubility” value in data set [4] (setting [6]) is “N”.

In the case of `CCCCCCCCCC(=O)OCC(C)(C)COC(=O)CCCCCCCCC` [Neopentyl glycol dicaprate], the “Solubility” value in data set [4] (setting [8]) is “N”.

For `CC(C)C(=O)OCC1CC2CC1C1CCCC21` (stereo not shown) [TCDIB, tricyclo[5.2.1.0^2,6]deca-8-yl-methyl isobutanoate], the Refractive index in data set [3] is listed as 1.483. Besides, in data set [1], the Viscosity is listed as 15 mPa · s. In addition, in data set [2], the “MIU (mean frictional coefficient)” value was found to be 0.27 and the “MMD” value was 0.005.

In the case of Ethylhexyl isononanoate, the “Solubility” value in data set [4] (setting [6]) is on record as “N”.

With `CCCCCCCCCCCCCCCCCC(=O)OC(CCCCCC)CCCCCCCCCCC(=O)OCC(CCCCCCCC)CCCCCCCCCC` (stereo not shown) [Octyldodecyl stearoyloxy stearate, reference compound], the Viscosity in data set [1] worked out at 96 mPa · s. In data set [2], the “MIU (mean frictional coefficient)” value is given as 0.41 and the “MMD” value is 0.006. Further, the “Solubility” value in data set [4] (setting [9]) was “N”.

“tricyclo[5.2.1.0^2,6]deca-8-yl-methyl isostearate [TCDIS]” came in with a Refractive index in data set [3] of 1.482. The compound further yielded a Viscosity in data set [1] of 85 mPa · s. Also, in data set [2], the “MIU (mean frictional coefficient)” value is 0.40 and the “MMD” value amounted to 0.006.

(Values after patent US10010493B2, “Ester compound, and cosmetic component and cosmetic product each containing same” (Kokyu Alcohol Kogyo Co., Ltd., priority 2014, dated 2018).)
